Measured values published in US20240299353A1, “COMPOSITIONS AND METHODS FOR TREATING […] 5-MEO-DMT” (Alvarius Pharmaceuticals Ltd., priority 2021, published 2024).

Key:
[1] = system: primary hippocampal neurons; assay: Antagonist pre-treatment studies of neuronal structural change, Sholl analysis; format: cell-based, rat; details: for AUC of the Sholl plot / normalised AUC of the Sholl plot: vehicle pre-treated; for neuronal structural complexity (normalised AUC): meta-analysis, combined vehicle pre-treated groups
Experimental: Primary hippocampal cultures were grown on 18 mm glass coverslips at a density of 1×10^6 cells as described. On 3 DIV all cells underwent a full medium change. […] On 4 DIV, all cells underwent a second full medium change. Cells in the combination group were treated with 2 μM 5-MeO-DMT for a further 24 hours with all other groups beginning a 24-hour treatment. After treatment was completed the cells were fixed and processed as described below.
Based on the findings with other psychedelic drugs that share structural and behavioral similarities to 5-MeO-DMT we selected ANA-12 (Sigma), an antagonist of TrkB, the BDNF receptor, and rapamycin (ThermoFischer) an antagonist of the mammalian target of rapamycin (mTOR). Due to the affinity and known behavioral change induced by 5-MeO-DMT at the 5-HT1AR and 5-HT2AR we assessed their contribution to structural changes mediated by 5-MeO-DMT. The receptors were antagonized with WAY-100635 maleate (Tocris) or Ketanserin (Axxora), respectively. For all antagonist studies the antagonist under investigation was added 15 mins prior to drug treatment. […] ANA-12, Ketanserin and rapamycin were dissolved in dimethyl sulfoxide (DMSO) with a final concentration of 0.01-0.04% for treatment. WAY100635 was dissolved in sterile dH2O.
After termination of drug treatment coverslips were processed and imaged as outlined for immunocytochemistry. In all instances NeuN antibody staining was used to visualize projections from the cell body. Images were analyzed using the Simple Neurite Tracer and Sholl analysis plug-ins for ImageJ Fiji. For the Sholl analysis circle radii of 2 μm increments were used. All images were taken and analyzed by an experimenter blinded to treatment conditions.
Statistical Analysis—Data are represented as mean±SEM. Statistical analyses were performed using GraphPad Prism (version 5). For analyses involving comparison of three or more groups, a one-way ANOVA with Bonferroni's post-hoc test was utilized where appropriate. No statistics were calculated for the individual points of the Sholl plots, instead, statistical analyses were performed on the aggregate data, the area under the curve (AUC) of the Sholl plot. Secondary measurements were the Nmax, the maximum number of intersections measured by the Sholl analysis, which indicated the number of projections emanating from a neuron and the average length of primary neurites originating from the cell soma.

hippocampal proteins = assay: Hippocampal LC-MS/MS proteomics, chronic cocaine with single psychedelic administration; format: in vivo, Male Wister rats
Experimental: Animals were then randomly allocated to one of five groups and received a single i.p. injection of one of vehicle, 5 mg/kg 5-Meo-DMT, 0.14 mg/kg LSD, 1 mg/kg psilocybin, or 1 mg/kg DOI. On day 15, animals were euthanised and the hippocampus blunt dissected, snap frozen in liquid nitrogen and stored at −80° C. until further processing.
Protein from hippocampal tissue was processed for liquid chromatography tandem Mass Spectrometry (LC-MS/MS). Samples were run on a Thermo Scientific Q Exactive Mass Spectrometer connected to a Dionex Ultimate 3000 (RSLCnano) chromatography system in the UCD Conway Institute Core Mass Spectrometry Facility. Peptide and protein identification of MS/MS spectra were searched against the rat UniProt database using carbamidomethylation (C) as a fixed modification and acetylation (protein N terminus) and oxidation (M) as variable modifications with a false discovery rate filtering of 0.01. MaxQuant was using to generate label-free quantitative (LFQ) ion intensities and the Perseus statistical software contained in the MaxQuant package was used to analyse LFQ ion intensity. Statistical significance (p<0.05, FC±20%) of mean LFQ intensity between treatment groups was determined by two sample t-test. […] Networks were visualised using the stringApp (version 1.6.0) plugin for the Cytoscape software platform (version 3.8.2).

[2] = ANA-12 study, 5-MeO-DMT or cocaine alone
[3] = WAY100635 study, 5-MeO-DMT (20 μM) or cocaine (25 μM) alone
[4] = rapamycin study, 5-MeO-DMT or cocaine alone

Structure (SMILES) | AUC of the Sholl plot [1, 2] | normalised AUC of the Sholl plot [1, 3] | neuronal structural complexity (normalised AUC) ([1]; agent alone) | normalised AUC of the Sholl plot [1, 4] | significantly regulated proteins in the hippocampus between saline and cocaine (hippocampal proteins; cocaine 20 mg/kg i.p. daily for 14 days) | AUC of the Sholl plot ([1]; ANA-12 study, cocaine and 5-MeO-DMT combined) | average neurite length ([1]; ANA-12 study, 5-MeO-DMT alone) | average neurite length ([1]; ANA-12 study, 5-MeO-DMT in combination with cocaine) | normalised AUC of the Sholl plot ([1]; WAY100635 study, cocaine followed by 5-MeO-DMT) | average neurite length ([1]; WAY100635 study, 5-Meo+vehicle) | normalised AUC of the Sholl plot ([1]; ketanserin study, cocaine followed by 5-MeO-DMT) | neuronal structural complexity (normalised AUC) ([1]; cocaine+5-MeO-DMT combination) | normalised AUC of the Sholl plot ([1]; rapamycin study, cocaine followed by 5-MeO-DMT) | differential expression of proteins in the control hippocampus (hippocampal proteins; single i.p. dose (5-MeO-DMT 5 mg/kg, LSD 0.14 mg/kg, psilocybin 1 mg/kg, DOI 1 mg/kg) vs saline-saline, p<0.05, FC ±20%) | differential expression of proteins in the chronic cocaine hippocampus (hippocampal proteins; single i.p. dose after 14 days cocaine 20 mg/kg (5-MeO-DMT 5, LSD 0.14, psilocybin 1, DOI 1 mg/kg) vs cocaine-saline) | reversal of chronic cocaine mediated proteomic changes in the hippocampus (hippocampal proteins; single treatment (5-MeO-DMT 5, LSD 0.14, psilocybin 1, DOI 1 mg/kg i.p.))
COC(=O)[C@H]1[C@@H](OC(=O)c2ccccc2)C[C@@H]2CC[C@H]1N2C.Cl [cocaine, cocaine hydrochloride, reference compound] | increased the AUC relative to control | increased the normalised AUC | significantly increased neuronal structural complexity | increased the normalised AUC | 85 proteins | – | – | – | – | – | – | – | – | – | – | –
COc1ccc2[nH]cc(CCN(C)C)c2c1 [5-MeO-DMT, 5-methoxy-N,N-dimethyltryptamine] | increased the AUC relative to control | increased the normalised AUC | significantly increased neuronal structural complexity | increased the normalised AUC | – | increased the AUC relative to control | significantly increased | significantly increased | no change between the combination group and control | significantly increased | reduced AUC relative to control | significantly increased neuronal structural complexity | no change between the combination group and control | 64 proteins | 74 proteins | 77%
